Results reported in PubChem BioAssay (NCI).
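Each compound was tested at five concentrations against cells in 96-well plates for 48 hours. Abbreviation: GI50, concentration required for 50% inhibition of growth. TGI marks complete inhibition of growth.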

Experiments:
Experiment in all cases: DTP human tumour cell line panel, 48 h
SF-268 CNS = tested on: SF-268 CNS
SF-295 CNS = tested on: SF-295 CNS
NCI/ADR-RES ovarian = tested on: NCI/ADR-RES ovarian
SK-MEL-2 melanoma = tested on: SK-MEL-2 melanoma
COLO 205 colon = tested on: COLO 205 colon
HL-60(TB) leukemia = tested on: HL-60(TB) leukemia
MDA-MB-231 breast = tested on: MDA-MB-231 breast
HOP-92 NSCLC = tested on: HOP-92 NSCLC
UACC-257 melanoma = tested on: UACC-257 melanoma
786-0 renal = tested on: 786-0 renal
NCI-H226 lung = tested on: NCI-H226 lung
SK-MEL-28 melanoma = tested on: SK-MEL-28 melanoma
NCI-H460 lung = tested on: NCI-H460 lung
MCF7 breast = tested on: MCF7 breast
HT29 colon = tested on: HT29 colon
HCC-2998 colon = tested on: HCC-2998 colon
A498 renal = tested on: A498 renal
MALME-3M melanoma = tested on: MALME-3M melanoma
SN12C renal = tested on: SN12C renal
PC-3 prostate = tested on: PC-3 prostate
HS 578T breast = tested on: HS 578T breast
RPMI-8226 leukemia = tested on: RPMI-8226 leukemia
SR leukemia = tested on: SR leukemia
CAKI-1 renal = tested on: CAKI-1 renal
NCI-H23 lung = tested on: NCI-H23 lung
HCT-116 colon = tested on: HCT-116 colon
MOLT-4 leukemia = tested on: MOLT-4 leukemia
SK-MEL-5 melanoma = tested on: SK-MEL-5 melanoma
A549 NSCLC = tested on: A549 NSCLC
CCRF-CEM leukemia = tested on: CCRF-CEM leukemia
OVCAR-5 ovarian = tested on: OVCAR-5 ovarian
OVCAR-8 ovarian = tested on: OVCAR-8 ovarian
LOX IMVI melanoma = tested on: LOX IMVI melanoma
TK-10 renal = tested on: TK-10 renal
K-562 leukemia = tested on: K-562 leukemia
HCT-15 colon = tested on: HCT-15 colon
SW-620 colon = tested on: SW-620 colon
DU-145 prostate = tested on: DU-145 prostate
UO-31 renal = tested on: UO-31 renal
KM12 colon = tested on: KM12 colon
UACC-62 melanoma = tested on: UACC-62 melanoma
SK-OV-3 ovarian = tested on: SK-OV-3 ovarian
IGROV1 ovarian = tested on: IGROV1 ovarian
ACHN renal = tested on: ACHN renal
SNB-19 CNS = tested on: SNB-19 CNS
HOP-62 NSCLC = tested on: HOP-62 NSCLC
OVCAR-4 ovarian = tested on: OVCAR-4 ovarian
SNB-75 CNS = tested on: SNB-75 CNS
OVCAR-3 ovarian = tested on: OVCAR-3 ovarian
U251 CNS = tested on: U251 CNS

With `COc1cc(-c2n[nH]nc2-c2ccc3c(c2)OCCO3)cc(OC)c1OC` the GI50 (SF-268 CNS) was 0.0685 µM, the TGI (SF-268 CNS) was > 100 µM and the GI50 (SF-295 CNS) was < 0.01 µM. The TGI (SF-295 CNS) was 42.8 µM, the GI50 (NCI/ADR-RES ovarian) was < 0.01 µM and the TGI (NCI/ADR-RES ovarian) was 69.7 µM. The GI50 (SK-MEL-2 melanoma) was < 0.01 µM, the TGI (SK-MEL-2 melanoma) was 18.1 µM and the GI50 (COLO 205 colon) was 0.0267 µM. It also gave a TGI (COLO 205 colon) of 0.0774 µM, a GI50 (HL-60(TB) leukemia) of 0.0189 µM and a TGI (HL-60(TB) leukemia) of 0.0824 µM. For the same molecule, the GI50 (MDA-MB-231 breast) was 0.0444 µM, the TGI (MDA-MB-231 breast) was > 100 µM and the GI50 (HOP-92 NSCLC) was < 0.01 µM. For the same molecule, the TGI (HOP-92 NSCLC) was 0.543 µM, the GI50 (UACC-257 melanoma) was 3.73 µM and the TGI (UACC-257 melanoma) was 23.1 µM. The GI50 (786-0 renal) was < 0.01 µM, the TGI (786-0 renal) was 13.5 µM and the GI50 (NCI-H226 lung) was 0.0609 µM. For the same molecule, the TGI (NCI-H226 lung) was 64.1 µM, the GI50 (SK-MEL-28 melanoma) was 2.88 µM and the TGI (SK-MEL-28 melanoma) was 34.8 µM. For the same molecule, the GI50 (NCI-H460 lung) was 0.0246 µM, the TGI (NCI-H460 lung) was 20 µM and the GI50 (MCF7 breast) was < 0.01 µM. It also gave a TGI (MCF7 breast) of 37.9 µM, a GI50 (HT29 colon) of 0.0253 µM and a TGI (HT29 colon) of 12.3 µM. It also gave a GI50 (HCC-2998 colon) of 0.0394 µM, a TGI (HCC-2998 colon) of 17.5 µM and a GI50 (A498 renal) of 0.0104 µM. It also gave a TGI (A498 renal) of 1.5 µM, a GI50 (MALME-3M melanoma) of 17.6 µM and a TGI (MALME-3M melanoma) of 72.3 µM. The GI50 (SN12C renal) was 0.133 µM, the TGI (SN12C renal) was > 100 µM and the GI50 (PC-3 prostate) was 0.0184 µM. The TGI (PC-3 prostate) was 39.4 µM, the GI50 (HS 578T breast) was 0.668 µM and the TGI (HS 578T breast) was 64.2 µM. For the same molecule, the GI50 (RPMI-8226 leukemia) was 0.0325 µM, the TGI (RPMI-8226 leukemia) was 11 µM and the GI50 (SR leukemia) was < 0.01 µM. For the same molecule, the TGI (SR leukemia) was 23.9 µM, the GI50 (CAKI-1 renal) was < 0.01 µM and the TGI (CAKI-1 renal) was > 100 µM. For the same molecule, the GI50 (NCI-H23 lung) was 0.048 µM, the TGI (NCI-H23 lung) was 41.7 µM and the GI50 (HCT-116 colon) was < 0.01 µM. For the same molecule, the TGI (HCT-116 colon) was 0.811 µM, the GI50 (MOLT-4 leukemia) was 0.0399 µM and the TGI (MOLT-4 leukemia) was 11.6 µM. The GI50 (SK-MEL-5 melanoma) was < 0.01 µM, the TGI (SK-MEL-5 melanoma) was 0.166 µM and the GI50 (A549 NSCLC) was 0.0229 µM. The TGI (A549 NSCLC) was 22.6 µM, the GI50 (CCRF-CEM leukemia) was 0.0337 µM and the TGI (CCRF-CEM leukemia) was > 100 µM. For the same molecule, the GI50 (OVCAR-5 ovarian) was 2.18 µM, the TGI (OVCAR-5 ovarian) was > 100 µM and the GI50 (OVCAR-8 ovarian) was 0.0418 µM. It also gave a TGI (OVCAR-8 ovarian) of 35 µM, a GI50 (LOX IMVI melanoma) of 0.0175 µM and a TGI (LOX IMVI melanoma) of 37.8 µM. For the same molecule, the GI50 (TK-10 renal) was 4.57 µM, the TGI (TK-10 renal) was 34.6 µM and the GI50 (K-562 leukemia) was < 0.01 µM. The TGI (K-562 leukemia) was > 100 µM, the GI50 (HCT-15 colon) was < 0.01 µM and the TGI (HCT-15 colon) was > 100 µM. The GI50 (SW-620 colon) was < 0.01 µM, the TGI (SW-620 colon) was > 100 µM and the GI50 (DU-145 prostate) was 0.025 µM. For the same molecule, the TGI (DU-145 prostate) was > 100 µM, the GI50 (UO-31 renal) was < 0.01 µM and the TGI (UO-31 renal) was 24.6 µM. The GI50 (KM12 colon) was < 0.01 µM, the TGI (KM12 colon) was 11.2 µM and the GI50 (UACC-62 melanoma) was 2.28 µM. The TGI (UACC-62 melanoma) was 21.2 µM, the GI50 (SK-OV-3 ovarian) was < 0.01 µM and the TGI (SK-OV-3 ovarian) was 12.7 µM. For the same molecule, the GI50 (IGROV1 ovarian) was 0.0332 µM, the TGI (IGROV1 ovarian) was 30.3 µM and the GI50 (ACHN renal) was < 0.01 µM. The TGI (ACHN renal) was > 100 µM, the GI50 (SNB-19 CNS) was 0.0294 µM and the TGI (SNB-19 CNS) was > 100 µM. For the same molecule, the GI50 (HOP-62 NSCLC) was 0.0182 µM, the TGI (HOP-62 NSCLC) was 19.3 µM and the GI50 (OVCAR-4 ovarian) was 0.0336 µM. The TGI (OVCAR-4 ovarian) was 57.1 µM, the GI50 (SNB-75 CNS) was < 0.01 µM and the TGI (SNB-75 CNS) was 21.9 µM. The GI50 (OVCAR-3 ovarian) was < 0.01 µM, the GI50 (U251 CNS) was 0.0201 µM and the TGI (U251 CNS) was 22.7 µM.
